Experimental data: patent US20240148820A1 (priority 2021, published 2024)
Converted amounts (≈) assume the structure as drawn. “Also recorded” adds a separate entry of the source. Where a SMILES comes first, the peptide text is derived from it. Where no end group is shown, it is not given here.

Legend:
[1] = tested on: A(H1N1) virus; type: cell-based, A/Hong Kong/415742M/2009(H1N1)
[2] = tested on: A(H1N1) virus
[3] = target: Spike of SARS-CoV-2 / ACE2-human (Severe acute respiratory syndrome coronavirus 2, UniProt P0DTC2); type: cell-based, SARS-CoV-2 / human
[4] = tested on: SARS-CoV-2; type: cell-based
[5] = tested on: coronavirus or influenza virus; details: oral inoculation or intraperitoneal injection (refs 29, 30, 39, 41); cited from earlier work
[6] = tested on: A(H1N1) virus; design: species or system BALB/c mice; details: in vivo
[7] = tested on: SARS-CoV-2; type: cell-based, human
[8] = tested on: SARS-CoV; design: species or system BALB/c mice; details: in vivo
[9] = tested on: SARS-CoV-2; details: in vivo
[10] = tested on: SARS-CoV-2; details: cited from earlier work
[11] = target: S protein of SARS-CoV-2 (Severe acute respiratory syndrome coronavirus 2, UniProt P0DTC2); type: binding
[12] = tested on: turkey red blood cells; details: normalized to Triton X-100
[13] = tested on: SARS-CoV-2
[14] = tested on: MDCK cells; assay: Cytotoxicity assay (MTT)
[15] = tested on: A(H3N2)
[16] = tested on: FluB
[17] = tested on: A(H1N1) virus; type: cell-based; details: virus pretreated 45 min, attached to MDCK cells 1 h

For `CC[C@H](C)[C@H](NC(=O)[C@H](C)NC(=O)CNC(=O)[C@H](CC(N)=O)NC(=O)[C@H](CO)NC(=O)[C@H](Cc1ccccc1)NC(=O)[C@H](CCCNC(=N)N)NC(=O)[C@H](Cc1c[nH]cn1)NC(=O)[C@H](CS)NC(=O)[C@H](CCC(N)=O)NC(=O)[C@H](CO)NC(=O)[C@H](CC(=O)O)NC(=O)[C@H](Cc1c[nH]c2ccccc12)NC(=O)[C@H](CCCNC(=N)N)NC(=O)CNC(=O)[C@H](CC(N)=O)NC(=O)[C@@H](NC(=O)[C@@H](N)Cc1ccccc1)[C@@H](C)CC)C(=O)N[C@@H](C)C(=O)N[C@@H](CS)C(=O)N[C@@H](C)C(=O)O` [U4] (H-FINGRWDSQCHRFSNGAIACA-OH; N-terminus and C-terminus assumed), the “antiviral activity against A(H1N1) virus compared with Urumin” value [1] was “more potent antiviral activity than that of Urumin” and the “IC50 against A(H1N1) virus” value [2] was 6.6 µg/mL (≈ 2.8 µM).

For `CO/C1=C\C(C)=C\[C@@H](C)[C@@H](O)[C@@H](C)C/C(C)=C/C=C/[C@H](OC)[C@@H]([C@@H](C)[C@@H](O)[C@H](C)[C@@]2(O)C[C@@H](O)[C@H](C)[C@@H](C(C)C)O2)OC1=O` [bafilomycin A1], the “spike-ACE2 mediated cell fusion” value [3] was “fusion inhibition”.

In the case of `CCN(CC)CCCC(C)Nc1ccnc2cc(Cl)ccc12` (stereo not drawn) [chloroquine], the “antiviral activity when cells treated before or after infection” value [4] is listed as “significantly less antiviral activity”, the “viral replication when treated during viral infection” value [4] is listed as “effectively inhibit viral replication; also recorded: more effectively inhibited viral replication” and the “coronavirus or influenza virus replication in vivo after systemic administration” value [5] is listed as “could not inhibit coronavirus or influenza virus replication in vivo”. For the same molecule, the “A(H1N1) virus replication in mouse lungs (in words)” value [6] was “inhibited A(H1N1) virus replication”, the “A(H1N1) virus replication in mouse lungs, atomization inhalation” value [6] was “could inhibit; also recorded: inhibited” and the “1-day prophylactic activity against A(H1N1) virus replication” value ([6]; mouse) was “could not provide 1-day prophylactic activity”. The “inhibition of A(H1N1) virus replication in mice” value ([6]; mouse) was 3.5 fold, the “inhibition of A(H1N1) virus replication, one dose before viral inoculation” value ([6]; mouse) was 3-5 fold and the “SARS-CoV-2 replication in ex vivo human lung tissues” value [7] was “significantly inhibited SARS-CoV-2 replication”. For the same molecule, the “SARS-CoV replication in mouse lungs, atomization inhalation” value [8] was “could inhibit; also recorded: inhibited”, the “1-day prophylactic activity against SARS-CoV replication” value ([8]; mouse) was “could not provide 1-day prophylactic activity” and the “inhibition of SARS-CoV replication, one dose before viral inoculation” value ([8]; mouse) was 3-5 fold. For the same molecule, the “SARS-CoV-2 replication in hamster lungs (in words)” value [9] was “inhibited SARS-CoV-2 replication”, the “inhibition of SARS-CoV-2 replication in hamster lungs” value [9] was 2 fold and the “SARS-CoV-2 replication in Calu-3 cells (reference 24)” value [10] was “cannot inhibit SARS-CoV-2 replication”.

For IPLRGAFINGRWDSQCHRFS [U5], the “spike-ACE2 mediated cell fusion” value [3] was “did not inhibit spike-ACE2 mediated fusion”, the “antiviral activity against A(H1N1) virus compared with Urumin” value [1] was “more potent antiviral activity than that of Urumin” and the “binding to S protein of SARS-CoV-2” value [11] was “bound to S protein”. For the same molecule, the “effect of U5 on P16 binding to S protein” value [11] was “reduced P16 binding to S protein; also recorded: blocked P16 binding to S protein” and the “IC50 against A(H1N1) virus” value [2] was 12.9 µg/mL.

With “RGAHIKGRWKSRCHRF [P16, RGAHIKGRWKSRCHRF]” the “hemolysis of turkey red blood cells” value [12] was “no significant hemolysis”, the “IC50 against A(H1N1) virus” value [2] was 3.9 µg/mL and the “IC50 for SARS-CoV-2 B.1.1.63” value [13] was 3.0 µg/mL. The “IC50 for SARS-CoV-2 B.1.617.2” value [13] was 3.9 µg/mL, the “IC50 for SARS-CoV-2 HKU001a” value [13] was 2.9 µg/mL and the “cytotoxicity on MDCK cells” value ([14]; MDCK cells treated by 1 mg ml^−1 of P16) was “no significant cytotoxicity”. For the same molecule, the TC50 ([14]; MDCK cells, MTT, 24 h) was > 1000 µg/mL, the “IC50 against A(H3N2)” value [15] was 1.6 µg/mL and the “IC50 against FluB” value [16] was 7.1 µg/mL.

In the case of Triton X-100, the “viral attachment to cells (RNA copies of attached virus)” value [17] is reported as “significantly reduced”.
